Target: HmbR (Neisseria meningitidis, UniProt Q9JYA8)
Test: UV-vis absorption and EPR of ferric heme-bound HmbR
Assay type: binding
Details: 500 mM imidazole, pH 7.4; sixth axial ligand of the bound ferric heme

c1c[nH]cn1 [imidazole]
UV-vis absorption and EPR of ferric heme-bound HmbR: change from pentacoordinate to hexacoordinate ligation upon addition of exogenous imidazole to ferric holoHmbR

— paper PMC4439194 (Biochimica et biophysica acta, 2014)
